# Assay results: patent US20240190831A1, “TRANSTHYRETIN STABILIZING COMPOUNDS” (Protego Biopharma, Inc., priority 2021, published 2024)
# What was measured:
# [1] = In vitro rat liver S9 stability assay (formation of tafamidis); assay type: in vitro ADME; conditions: rat liver S9, 1 μM test compound, 37° C.
# Description: A stability assay in liver S9 (rat or human) was used to evaluate the ability of a compound provided herein to convert to an active TTR stabilizer. The test compound was added to liver S9 and incubated at 37° C. in a water bath at a concentration of 1 μM. At each time point (0, 5, 10, 20, 30 and 60 min), stop solution (tolbutamide plus labetalol) was added to precipitate protein and mixed thoroughly. After centrifugation, an aliquot of supernatant was analyzed by LC-MS/MS. The percentage of formation of active agent was calculated at each time point.
# [2] = In vivo rat PK (CSF/plasma and brain/plasma ratio of tafamidis); conditions: for Tafamidis CSF/plasma Ratio over 24 hrs (po): oral dosing of test compound
# Source text: For a compound provided herein to be an effective TTR stabilizer drug to halt and/or prevent the ocular and cerebral TTR amyloid deposition TTR amyloidosis, it has to be able to penetrate into the brain and CSF (surrogate for eye penetration) and deliver a sufficient amount of TTR stabilizer to stop TTR dissociation. A pharmacokinetic study in rat was used to evaluate the compounds. Male Sprague-Dawley (SD) rats (200-220 g weight) were acclimated for at least 2 to 3 days before being placed on study. All animals had access to certified rodent diet and water at libitum. Appropriate amount of the test compound was accurately weighed and mixed with appropriate volume of vehicle (such as DMSO/sterile water for iv dosing or 0.5% methylcellulose homogenous suspension or solution for oral administration or as a solution in a mixture NMP/PEG400/solutol/water) to administer a dose of 2, 5 or 10 mg/kg. For IV dosing the test compound was administered via tail vein or indwelling cannula. For oral dosing, the test compound was administered by oral gavage. Blood and CSF samples were collected at selected timepoints. Blood collection was performed from saphenous vein or tail vein of each animal into polypropylene tubes at each timepoint. All blood samples were transferred into EDTA-K2 tubes and centrifuged for 15 minutes at 4° C. for plasma collection. Plasma samples were kept at −80° C. until LC/MSMS analysis. CSF was collected from cisterna magna at each timepoint and quick frozen over dry ice and kept at −80° C. until LC/MSMS analysis. Brains were harvested immediately after the terminal bleeding (˜24 hrs post dosing). The blood of the brain was perfused with normal saline. The brain was quickly picked and placed into centrifuge tube. The weight of brain samples was recorded. 4-Fold homogenization solution (MeOH/15 mM PBS (1:2)) was added into the tube according to the weighed samples. The brain was homogenized using a Polytron (3 strokes or more until homogenous, each 30 seconds) on wet ice. The samples were quick frozen over dry ice and kept at −80° C. until LC/MSMS analysis. Using a LC-MSMS method for the quantitative determination of test compound in biological matrixes, amount of test compound and active agent were measured in plasma and CSF at selected timepoints post-dosing and in brain at 24 hrs post dosing. Plasma concentration versus time data was analyzed by non-compartmental approaches using the Phoenix WinNonlin 6.3 software program. As reference, an oral dose of 2 mg/kg of tafamidis gave a CSF to plasma ratio over 24 hrs around 0.01 and a brain to plasma ratio at 24 hrs around 0.02.
# Results from rat PK (CSF/plasma ratio and brain/plasma ratio at 24 hrs) are shown in Table 4B and Table 4C, respectively.
# [3] = tafamidis-treated FAP patients; cited from earlier work
Formation of tafamidis at 60 min [1],SMILES,also measured
A (A is <25%),"CN(C)CCNC(=O)c1ccc2nc(-c3cc(Cl)cc(Cl)c3)oc2c1 [Compound 7, 2-(3,5-dichlorophenyl)-N-(2-(dimethylamino)ethyl)benzo[d]oxazole-6-carboxamide]",Tafamidis CSF/plasma Ratio over 24 hrs (po) [2]: C (C is ≥0.02)
A (A is <25%),"CC(Cc1ncc[nH]1)OC(=O)c1ccc2nc(-c3cc(Cl)cc(Cl)c3)oc2c1 (stereo not drawn) [Compound 34, 1-(1H-imidazol-2-yl)propan-2-yl 2-(3,5-dichlorophenyl)benzo-[d]oxazole-6-carboxylate]",Tafamidis CSF/plasma Ratio over 24 hrs (po) [2]: B (B is ≥0.015 to <0.02)
A (A is <25%),O=C(c1ccc2nc(-c3cc(Cl)cc(Cl)c3)oc2c1)N1CCCC(O)C1 (stereo not drawn) [Compound 83],Tafamidis CSF/plasma Ratio over 24 hrs (po) [2]: A (A is <0.015)
A (A is <25%),O=C(c1ccc2nc(-c3cc(Cl)cc(Cl)c3)oc2c1)N1CCC(O)C1 (stereo not drawn) [Compound 84],Tafamidis CSF/plasma Ratio over 24 hrs (po) [2]: A (A is <0.015)
A (A is <25%),O=C(c1ccc2nc(-c3cc(Cl)cc(Cl)c3)oc2c1)N1CC(O)C1 [Compound 93],Tafamidis CSF/plasma Ratio over 24 hrs (po) [2]: A (A is <0.015)
A (A is <25%),O=C(N[C@H]1CC[C@H](O)CC1)c1ccc2nc(-c3cc(Cl)cc(Cl)c3)oc2c1 [Compound 97],
A (A is <25%),O=C(NC1CC2(CC(O)C2)C1)c1ccc2nc(-c3cc(Cl)cc(Cl)c3)oc2c1 (stereo not drawn) [Compound 98],
A (A is <25%),O=C(N[C@@H]1CCC[C@H](O)C1)c1ccc2nc(-c3cc(Cl)cc(Cl)c3)oc2c1 [Compound 99],
A (A is <25%),O=C(N[C@@H]1CCC[C@@H](O)C1)c1ccc2nc(-c3cc(Cl)cc(Cl)c3)oc2c1 [Compound 100],
A (A is <25%),CC1(O)CN(C(=O)c2ccc3nc(-c4cc(Cl)cc(Cl)c4)oc3c2)C1 [Compound 101],Tafamidis CSF/plasma Ratio over 24 hrs (po) [2]: B (B is ≥0.015 to <0.02)
A (A is <25%),CC1(O)CCCN(C(=O)c2ccc3nc(-c4cc(Cl)cc(Cl)c4)oc3c2)C1 (stereo not drawn) [Compound 102],
A (A is <25%),CC1(O)CCN(C(=O)c2ccc3nc(-c4cc(Cl)cc(Cl)c4)oc3c2)CC1 [Compound 103],
A (A is <25%),O=C(c1ccc2nc(-c3cc(Cl)cc(Cl)c3)oc2c1)N1CCC(F)(F)C1 [Compound 104],Tafamidis CSF/plasma Ratio over 24 hrs (po) [2]: A (A is <0.015)
A (A is <25%),O=C(c1ccc2nc(-c3cc(Cl)cc(Cl)c3)oc2c1)N1CCC2(CC(O)C2)C1 (stereo not drawn) [Compound 105],
A (A is <25%),CC1(O)CC2(CCN(C(=O)c3ccc4nc(-c5cc(Cl)cc(Cl)c5)oc4c3)C2)C1 (stereo not drawn) [Compound 106],
A (A is <25%),O=C(c1ccc2nc(-c3cc(Cl)cc(Cl)c3)oc2c1)N1CC2(CCC(O)C2)C1 (stereo not drawn) [Compound 107],
A (A is <25%),O=C(c1ccc2nc(-c3cc(Cl)cc(Cl)c3)oc2c1)N1C[C@@H]2[C@H](O)[C@@H]2C1 [Compound 108],
A (A is <25%),O=C(c1ccc2nc(-c3cc(Cl)cc(Cl)c3)oc2c1)N1C[C@@H]2[C@@H](O)[C@@H]2C1 [Compound 109],

Formation of tafamidis at 60 min [1],SMILES,also measured
A (A is <25%),CC1(O)CC2(CN(C(=O)c3ccc4nc(-c5cc(Cl)cc(Cl)c5)oc4c3)C2)C1 [Compound 110],
A (A is <25%),CC1(O)CCC2(CN(C(=O)c3ccc4nc(-c5cc(Cl)cc(Cl)c5)oc4c3)C2)C1 (stereo not drawn) [Compound 111],
A (A is <25%),O=C(c1ccc2nc(-c3cc(Cl)cc(Cl)c3)oc2c1)N1CCC(F)C1 (stereo not drawn) [Compound 112],
A (A is <25%),O=C(c1ccc2nc(-c3cc(Cl)cc(Cl)c3)oc2c1)N1CC(F)(F)C[C@H]1CO [Compound 113],
A (A is <25%),O=C(c1ccc2nc(-c3cc(Cl)cc(Cl)c3)oc2c1)N1CC[C@@H](O)[C@@H](F)C1 [Compound 114],
A (A is <25%),O=C(c1ccc2nc(-c3cc(Cl)cc(Cl)c3)oc2c1)N1CCCCC(F)(F)C1 [Compound 115],
A (A is <25%),O=C(c1ccc2nc(-c3cc(Cl)cc(Cl)c3)oc2c1)N1CCC(O)C(F)(F)C1 (stereo not drawn) [Compound 116],
A (A is <25%),CC1(OC(=O)c2ccc3nc(-c4cc(Cl)cc(Cl)c4)oc3c2)CCNC1.Cl (stereo not drawn) [Compound 117],
A (A is <25%),O=C(c1ccc2nc(-c3cc(Cl)cc(Cl)c3)oc2c1)N1CCCC1C(F)(F)F (stereo not drawn) [Compound 118],
A (A is <25%),CC1(OC(=O)c2ccc3nc(-c4cc(Cl)cc(Cl)c4)oc3c2)CCN(CC(F)(F)F)C1 (stereo not drawn) [Compound 119],
A (A is <25%),CC1(OC(=O)c2ccc3nc(-c4cc(Cl)cc(Cl)c4)oc3c2)CCN(CCF)C1 (stereo not drawn) [Compound 120],
A (A is <25%),O=C(c1ccc2nc(-c3cc(Cl)cc(Cl)c3)oc2c1)N1C[C@@H](F)[C@@H](F)C1 [Compound 121],
C (C is ≥50 to <75%),CC1(OC(=O)c2ccc3nc(-c4cc(Cl)cc(Cl)c4)oc3c2)CCN(CC(F)F)C1 (stereo not drawn) [Compound 122],
A (A is <25%),CC1(OC(=O)c2ccc3nc(-c4cc(Cl)cc(Cl)c4)oc3c2)CCNCC1.Cl [Compound 123],
A (A is <25%),CC1(OC(=O)c2ccc3nc(-c4cc(Cl)cc(Cl)c4)oc3c2)CCN(CC(F)(F)F)CC1 [Compound 124],
A (A is <25%),O=C(c1ccc2nc(-c3cc(Cl)cc(Cl)c3)oc2c1)N1CC[C@H](O)[C@H](F)C1 [Compound 125],
A (A is <25%),CCN1CCC(C)(OC(=O)c2ccc3nc(-c4cc(Cl)cc(Cl)c4)oc3c2)CC1 [Compound 126],
,O=C(O)c1ccc2nc(-c3cc(Cl)cc(Cl)c3)oc2c1 [tafamidis],"Kp ([2]; male, Sprague-Dawley, CSF and plasma, oral dose of 2 mg/kg of tafamidis, reference, read-out: CSF to plasma ratio over 24 hrs): ~0.01; Kp at 24 h ([2]; male, Sprague-Dawley, brain and plasma, oral dose of 2 mg/kg of tafamidis, reference): ~0.02; tafamidis level in CSF, of that in plasma [3]: 2%; tafamidis level in vitreous, of that in plasma [3]: 0.5%; tafamidis/TTR stoichiometric ratio in plasma [3]: 2.4; tafamidis/TTR stoichiometric ratio in vitreous and CSF [3]: ≤ 1"
